# In US12071453B2, “Neuroactive steroids, compositions, and uses thereof” (Sage Therapeutics, Inc., priority 2013, dated 2024):
# Molecular target: [35S]-TBPS binding in rat brain cortical membranes
# Experiment: Steroid inhibition of [35S]-TBPS binding, rat brain cortical membranes
# Conditions: 3 nM [35S]-TBPS, in the presence of 5 μM GABA, read-out: 35S-TBPS Radioligand Displacement (IC50)
# Experimental: TBPS binding assays using rat brain cortical membranes in the presence of 5 μM GABA has been described (Gee et al, J. Pharmacol. Exp. Ther. 1987, 241, 346-353; Hawkinson et al, Mol. Pharmacol. 1994, 46, 977-985; Lewin, A. H et al., Mol. Pharmacol. 1989, 35, 189-194).
# Briefly, cortices are rapidly removed following decapitation of carbon dioxide-anesthetized Sprague-Dawley rats (200-250 g). The cortices are homogenized in 10 volumes of ice-cold 0.32 M sucrose using a glass/teflon homogenizer and centrifuged at 1500×g for 10 min at 4° C. The resultant supernatants are centrifuged at 10,000×g for 20 min at 4° C. to obtain the P2 pellets. The P2 pellets are resuspended in 200 mM NaCl/50 mM Na—K phosphate pH 7.4 buffer and centrifuged at 10,000×g for 10 min at 4° C. This washing procedure is repeated twice and the pellets are resuspended in 10 volumes of buffer. Aliquots (100 μL) of the membrane suspensions are incubated with 3 nM [^35S]-TBPS and 5 μL aliquots of test drug dissolved in dimethyl sulfoxide (DMSO) (final 0.5%) in the presence of 5 μM GABA. The incubation is brought to a final volume of 1.0 mL with buffer. Nonspecific binding is determined in the presence of 2 μM unlabeled TBPS and ranged from 15 to 25%. Following a 90 min incubation at room temp, the assays are terminated by filtration through glass fiber filters (Schleicher and Schuell No. 32) using a cell harvester (Brandel) and rinsed three times with ice-cold buffer. Filter bound radioactivity is measured by liquid scintillation spectrometry. Non-linear curve fitting of the overall data for each drug averaged for each concentration is done using Prism (GraphPad). […] The concentration of test compound producing 50% inhibition (IC50) of specific binding and the maximal extent of inhibition (Imax) are determined for the individual experiments with the same model used for the overall data and then the mean±SEM.s of the individual experiments are calculated.
# Various compounds are or can be screened to determine their potential as modulators of [^35S]-TBPS binding in vitro. These assays are or can be performed in accordance with the above discussed procedures.
row,SMILES,IC50 [nM]
1,COC[C@]12CC[C@@](C)(O)C[C@@H]1CC[C@H]1[C@@H]3CC[C@H](C(=O)Cn4cccn4)[C@@]3(C)CC[C@@H]12 [Compound 2],> 500
2,COC[C@]12CC[C@@](C)(O)C[C@@H]1CC[C@H]1[C@@H]3CC[C@H](C(=O)CN4CCOCC4)[C@@]3(C)CC[C@@H]12 [Compound 4],> 500
3,COC[C@]12CC[C@@](C)(O)C[C@@H]1CC[C@H]1[C@@H]3CC[C@H](C(=O)CN4CCN(C(C)=O)CC4)[C@@]3(C)CC[C@@H]12 [Compound 5],> 500
4,CC(=O)N1CCN(CC(=O)[C@H]2CC[C@H]3[C@@H]4CC[C@H]5C[C@](C)(O)CC[C@]5(CO)[C@H]4CC[C@]23C)CC1 [Compound 6],> 500
5,C[C@@]1(O)CC[C@@]2(CO)[C@@H](CC[C@H]3[C@@H]4CC[C@H](C(=O)CN5CCN(S(C)(=O)=O)CC5)[C@@]4(C)CC[C@@H]32)C1 [Compound 7],> 500
6,C[C@@]1(O)CC[C@@]2(CO)[C@@H](CC[C@H]3[C@@H]4CC[C@H](C(=O)CN5CCOCC5)[C@@]4(C)CC[C@@H]32)C1 [Compound 9],> 500
7,C[C@@]1(O)CC[C@@]2(CO)[C@@H](CC[C@H]3[C@@H]4CC[C@H](C(=O)Cn5nccn5)[C@@]4(C)CC[C@@H]32)C1 [Compound 10],> 500
8,C[C@@]1(O)CC[C@@]2(CO)[C@@H](CC[C@H]3[C@@H]4CC[C@H](C(=O)Cn5cccn5)[C@@]4(C)CC[C@@H]32)C1 [Compound 11],> 500
9,C[C@@]1(O)CC[C@@]2(CO)[C@@H](CC[C@H]3[C@@H]4CC[C@H](C(=O)Cn5ccnn5)[C@@]4(C)CC[C@@H]32)C1 [Compound 12],> 500
10,COC[C@]12CC[C@@](C)(O)C[C@H]1CC[C@H]1[C@@H]3CC[C@H](C(=O)Cn4cc(C)cn4)[C@@]3(C)CC[C@@H]12 [Compound 28],50 to 100
11,COC[C@]12CC[C@@](C)(O)C[C@@H]1CC[C@H]1[C@@H]3CC[C@H](C(=O)Cn4nc5ccccc5n4)[C@@]3(C)CC[C@@H]12 [Compound 40],10 to 50
12,COC[C@]12CC[C@@H](O)C[C@@H]1CC[C@H]1[C@@H]3CC[C@H](C(=O)Cn4nccn4)[C@@]3(C)CC[C@@H]12 [Compound 90],50 to 100
13,COC[C@]12CC[C@@H](O)C[C@@H]1CC[C@H]1[C@@H]3CC[C@H](C(=O)Cn4ccnn4)[C@@]3(C)CC[C@@H]12 [Compound 91],100 to 500
14,CCOC(=O)c1ccn(CC(=O)[C@H]2CC[C@H]3[C@@H]4CC[C@H]5C[C@H](O)CC[C@]5(COC)[C@H]4CC[C@]23C)n1 [Compound 92],10 to 50
15,COC[C@]12CC[C@@H](O)C[C@@H]1CC[C@H]1[C@@H]3CC[C@H](C(=O)Cn4cc(C)cn4)[C@@]3(C)CC[C@@H]12 [Compound 93],100 to 500
16,COC[C@]12CC[C@@](C)(O)C[C@@H]1CC[C@H]1[C@@H]3CC[C@H](C(=O)Cn4nnc5c(F)c(F)ccc54)[C@@]3(C)CC[C@@H]12 [Compound 114],10 to 50
17,COC[C@]12CC[C@@](C)(O)C[C@@H]1CC[C@H]1[C@@H]3CC[C@H](C(=O)Cn4nnc5ccc(F)c(F)c54)[C@@]3(C)CC[C@@H]12 [Compound 115],10 to 50
18,COC[C@]12CC[C@@](C)(O)C[C@@H]1CC[C@H]1[C@@H]3CC[C@H](C(=O)Cn4cc(C#N)cn4)[C@@]3(C)CC[C@@H]12 [Compound 127],10 to 50
19,COC[C@]12CC[C@@](C)(O)C[C@@H]1CC[C@H]1[C@@H]3CC[C@H](C(=O)Cn4nc5ccc(F)c(F)c5n4)[C@@]3(C)CC[C@@H]12 [Compound 128],< 10
20,COC[C@]12CC[C@@](C)(O)C[C@@H]1CC[C@H]1[C@@H]3CC[C@H](C(=O)Cn4nnc5c(F)c(Cl)ccc54)[C@@]3(C)CC[C@@H]12 [Compound 138],100 to 500
21,COC[C@]12CC[C@@](C)(O)C[C@@H]1CC[C@H]1[C@@H]3CC[C@H](C(=O)Cn4nnc5ccc(OC(F)(F)F)cc54)[C@@]3(C)CC[C@@H]12 [Compound 144],50 to 100
22,COC[C@]12CC[C@@](C)(O)C[C@@H]1CC[C@H]1[C@@H]3CC[C@H](C(=O)Cn4nnc5cc(OC(F)(F)F)ccc54)[C@@]3(C)CC[C@@H]12 [Compound 146],50 to 100
23,COC[C@]12CC[C@@](C)(O)C[C@@H]1CC[C@H]1[C@@H]3CC[C@H](C(=O)Cn4cc5nccnc5n4)[C@@]3(C)CC[C@@H]12 [Compound 154],> 500
24,COC[C@]12CC[C@@](C)(O)C[C@@H]1CC[C@H]1[C@@H]3CC[C@H](C(=O)Cn4ncc5nccnc54)[C@@]3(C)CC[C@@H]12 [Compound 155],50 to 100
25,COC[C@]12CC[C@@](C)(O)C[C@H]1CC[C@H]1[C@@H]3CC[C@H](C(=O)Cn4nnc5c(F)cccc54)[C@@]3(C)CC[C@@H]12 [Compound 157],10 to 50
26,COC[C@]12CC[C@](O)(C(F)(F)F)C[C@H]1CC[C@H]1[C@@H]3CC[C@H](C(=O)Cn4nnc5c(F)c(F)ccc54)[C@@]3(C)CC[C@@H]12 [Compound 161],100 to 500
27,COC[C@]12CC[C@](O)(C(F)(F)F)C[C@H]1CC[C@H]1[C@@H]3CC[C@H](C(=O)Cn4nc5ccc(F)c(F)c5n4)[C@@]3(C)CC[C@@H]12 [Compound 162],100 to 500
28,CCOC[C@]12CC[C@@](C)(O)C[C@@H]1CC[C@H]1[C@@H]3CC[C@H](C(=O)Cn4cc(C#N)cn4)[C@@]3(C)CC[C@@H]12 [Compound 171],10 to 50
